Molecular target: T1, PDE10A enzyme (Homo sapiens, UniProt Q9Y233)
T1 construct: made in house; host or cells: E. coli BL21(DE3)
Assay: PDE10A inhibition assay
Assay type: biochemical
Details: 3H-labelled cAMP substrate 5 nM, SPA beads, one hr at room temperature
Description: Active PDE10A enzyme is prepared in a number of ways for use in PDE assays (Loughney, K. et al. Gene 1999, 234, 109-117; Fujishige, K. et al. Eur J Biochem. 1999, 266, 1118-1127 and Soderling, S. et al. Proc. Natl. Acad. Sci. 1999, 96, 7071-7076). PDE10A can be expressed as full-length proteins or as truncated proteins, as long as they express the catalytic domain. PDE10A can be prepared in different cell types, for example insect cells or E. coli. An example of a method to obtain catalytically active PDE10A is as follows: The catalytic domain of human PDE10A (amino acids 440-779 from the sequence with accession number NP 006652) is amplified from total human brain total RNA by standard RT-PCR and is cloned into the BamH1 and Xho1 sites of the pET28a vector (Novagen). Expression in coil is performed according to standard protocols. Briefly, the expression plasmids are transformed into the BL21(DE3) E. coli strain, and 50 mL cultures inoculated with the cells allowed to grow to an OD600 of 0.4-0.6 before protein expression is induced with 0.5mM IPTG. Following induction, the cells are incubated overnight at room temperature, after which the cells are collected by centrifugation. Cells expressing PDE10A are resuspended in 12 mL (50 mM TRIS-HCl-pH8.0, 1 mM MgCl2 and protease inhibitors). The cells are lysed by sonication, and after all cells are lysed, TritonX100 is added according to Novagen protocols.
A PDE10A assay may for example, be performed as follows: The assay is performed in 60 uL samples containing a fixed amount of the relevant PDE enzyme (sufficient to convert 20-25% of the cyclic nucleotide substrate), a buffer (50 mM HEPES7.6; 10 mM MgCl2; 0.02% Tween20), 0.1 mg/mI BSA, 225 pCi of ^3H-labelled cyclic nucleotide substrate, tritium labeled cAMP to a final concentration of 5 nM and varying amounts of inhibitors. Reactions are initiated by addition of the cyclic nucleotide substrate, and reactions are allowed to proceed for one hr at room temperature before being terminated through mixing with 15 uL 8 mg/mL yttrium silicate SPA beads (Amersham). The beads are allowed to settle for one hr in the dark before the plates are counted in a Wallac 1450 Microbeta counter. The measured signal can be converted to activity relative to an uninhibited control (100%) and IC50 values can be calculated using the XIfit extension to EXCEL.

T1 sequence (Q9Y233 716-1055): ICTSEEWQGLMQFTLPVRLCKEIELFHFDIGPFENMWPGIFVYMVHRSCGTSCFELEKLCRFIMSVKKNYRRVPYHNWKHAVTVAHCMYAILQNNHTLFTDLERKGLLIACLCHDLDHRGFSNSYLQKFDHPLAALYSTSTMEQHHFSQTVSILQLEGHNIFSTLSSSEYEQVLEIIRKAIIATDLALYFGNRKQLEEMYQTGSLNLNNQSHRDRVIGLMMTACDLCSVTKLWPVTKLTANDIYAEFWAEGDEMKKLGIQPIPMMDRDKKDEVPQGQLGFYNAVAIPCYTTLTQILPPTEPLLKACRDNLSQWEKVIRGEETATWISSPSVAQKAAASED

IC50 | Structure (SMILES)
56 nM | COc1ccc(C)n2nc(CCc3nc(-c4ccccc4)nn3C(C)C)nc12 [2-[2-(2-Isopropyl-5-phenyl-2H-[1,2,4]triazol-3-yl)-ethyl]-8-methoxy-5-methyl-[1,2,4]triazolo[1,5-a]pyridine]
38 nM | Cc1ncc(C)n2nc(CCc3nc(-c4ccco4)n(C)n3)nc12 [2-[2-(5-Furan-2-yl-1-methyl-1H-[1,2,4]triazol-3-yl)-ethyl]-5,8-dimethyl-[1,2,4]triazolo[1,5-a]pyrazine]
4.6 nM | Cc1ncc(C)n2nc(CCc3nc(-c4ccco4)nn3C)nc12 [2-[2-(5-Furan-2-yl-2-methyl-2H-[1,2,4]triazol-3-yl)-ethyl]-5,8-dimethyl-[1,2,4]triazolo[1,5-a]pyrazine]
60 nM | Cc1ncc(C)n2nc(/C=C/c3nc(-c4ccco4)n(C)n3)nc12 [2-[(E)-2-(5-Furan-2-yl-1-methyl-1H-[1,2,4]triazol-3-yl)-vinyl]-5,8-dimethyl-[1,2,4]triazolo[1,5-a]pyrazine]
14 nM | COCCn1nc(-c2ccccc2)nc1CCc1nc2c(C)ncc(C)n2n1 [2-{2-[2-(2-Methoxy-ethyl)-5-phenyl-2H-[1,2,4]triazol-3-yl]-ethyl}-5,8-dimethyl-[1,2,4]triazolo[1,5-a]pyrazine]
69 nM | Cc1ncc(C)n2nc(CCc3nc(-c4ccccc4)nn3CCO)nc12 [2-{5-[2-(5,8-Dimethyl-[1,2,4]triazolo[1,5-a]pyrazin-2-yl)-ethyl]-3-phenyl-[1,2,4]triazol-1-yl}-ethanol]
23 nM | COc1ccc(C)n2nc(CCc3nc(-c4ccccc4)nn3CCO)nc12 [2-{5-[2-(8-Methoxy-5-methyl-[1,2,4]triazolo[1,5-a]pyridin-2-yl)-ethyl]-3-phenyl-[1,2,4]triazol-1-yl}-ethanol]
150 nM | CCc1ccc(C)n2nc(CCc3nc(-c4ccccc4)cn3CCCN)nc12 [3-{2-[2-(8-Ethyl-5-methyl-[1,2,4]triazolo[1,5-a]pyridin-2-yl)-ethyl]-4-phenyl-imidazol-1-yl}-propylamine]
25 nM | Cc1ncc(C)n2nc(CCc3nc(-c4ccccc4)nn3CCC#N)nc12 [3-{5-[2-(5,8-Dimethyl-[1,2,4]triazolo[1,5-a]pyrazin-2-yl)-ethyl]-3-phenyl-[1,2,4]triazol-1-yl}-propionitrile]
100 nM | Cc1ncc(C)n2nc(CCc3nc(-c4ccccc4)nn3CCCN)nc12 [3-{5-[2-(5,8-Dimethyl-[1,2,4]triazolo[1,5-a]pyrazin-2-yl)-ethyl]-3-phenyl-[1,2,4]triazol-1-yl}-propylamine]
14 nM | CCc1ccc(C)n2nc(CCc3nc(-c4ccccc4)nn3CCC#N)nc12 [3-{5-[2-(8-Ethyl-5-methyl-[1,2,4]triazolo[1,5-a]pyridin-2-yl)-ethyl]-3-phenyl-[1,2,4]triazol-1-yl}-propionitrile]
45 nM | COc1ccc(C)n2nc(CCc3nc(-c4ccccc4)nn3CCC#N)nc12 [3-{5-[2-(8-Methoxy-5-methyl-[1,2,4]triazolo[1,5-a]pyridin-2-yl)-ethyl]-3-phenyl-[1,2,4]triazol-1-yl}-propionitrile]
59 nM | Cc1cc(C)n2nc(CCc3nc(-c4ccccc4)nn3C)nc2n1 [5,7-Dimethyl-2-[2-(2-methyl-5-phenyl-2H-[1,2,4]triazol-3-yl)-ethyl]-[1,2,4]triazolo[1,5-a]pyrimidine]
53 nM | Cc1ncc(C)n2nc(CSc3nc(-c4ccccc4)n[nH]3)nc12 [5,8-Dimethyl-2-(5-phenyl-2H-[1,2,4]triazol-3-ylsulfanylmethyl)-[1,2,4]triazolo[1,5-a]pyrazine]
120 nM | Cc1ncc(C)n2nc(CCc3nc(-c4ncco4)nn3C)nc12 [5,8-Dimethyl-2-[2-(2-methyl-5-oxazol-2-yl-2H-[1,2,4]triazol-3-yl)-ethyl]-[1,2,4]triazolo[1,5-a]pyrazine]
15 nM | Cc1ncc(C)n2nc(CCc3nc(-c4ccccc4)nn3C)nc12 [5,8-Dimethyl-2-[2-(2-methyl-5-phenyl-2H-[1,2,4]triazol-3-yl)-ethyl]-[1,2,4]triazolo[1,5-a]pyrazine]

From patent publication US8785653B2, “(3-aryl-1H-1,2,4-triazol-5-yl)-linked heterocycle derivatives” (H. Lundbeck A/S, priority 2009, dated 2014)
